What was measured:
Escherichia coli [1] = experiment: (§1) Relative in vitro Antibacterial activity against Escherichia coli CN314 strain; format: functional; set-up: reference not given here
Proteus vulgaris = experiment: Relative in vitro Antibacterial activity against Proteus vulgaris CN329 strain; format: functional; set-up: unit not given here
Staphylococcus aureus = experiment: Relative in vitro Antibacterial activity against Staphylococcus aureus CN491 strain; format: functional; set-up: unit not given here
Dihydrofolate reductase [2] = molecular target: T1, Dihydrofolate reductase (Rattus norvegicus, UniProt Q920D2); experiment: Binding affinity against Dihydrofolate reductase of rat liver; conditions: read-out: I50
T1 sequence (Q920D2 whole entry): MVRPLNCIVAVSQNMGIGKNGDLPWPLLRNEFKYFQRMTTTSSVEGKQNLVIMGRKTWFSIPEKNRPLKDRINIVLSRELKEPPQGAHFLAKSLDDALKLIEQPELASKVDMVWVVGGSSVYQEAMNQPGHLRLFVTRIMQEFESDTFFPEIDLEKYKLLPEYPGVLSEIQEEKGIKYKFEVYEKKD

Escherichia coli [3] = experiment: as §1; format: functional; set-up: unit not given here
Salmonella = format: functional, salmonella typhosa; set-up: unit not given here
[4] = molecular target: T2, Dihydrofolate reductase (Rattus norvegicus) (UniProt Q920D2); experiment: Percent inhibition against Dihydrofolate reductase of rat liver at dose 0.9 mg/kg; format: organism-based; set-up: dose 0.9 mg/kg
T2 sequence (whole entry): T1 sequence (Q920D2 whole entry)

[5] = molecular target: T2, Dihydrofolate reductase (Rattus norvegicus); experiment: Percent inhibition against Dihydrofolate reductase of rat liver at dose 0.42 mg/kg; format: organism-based; set-up: dose 0.42 mg/kg
[6] = molecular target: T2, Dihydrofolate reductase (Rattus norvegicus); experiment: Percent inhibition against Dihydrofolate reductase of rat liver at dose 1.0 mg/kg; format: organism-based; set-up: dose 1 mg/kg
Dihydrofolate reductase [7] = molecular target: T3, Dihydrofolate reductase (Gallus gallus, UniProt P00378); experiment: Binding affinity against Dihydrofolate reductase of chicken liver; conditions: read-out: I50
T3 sequence (P00378 whole entry): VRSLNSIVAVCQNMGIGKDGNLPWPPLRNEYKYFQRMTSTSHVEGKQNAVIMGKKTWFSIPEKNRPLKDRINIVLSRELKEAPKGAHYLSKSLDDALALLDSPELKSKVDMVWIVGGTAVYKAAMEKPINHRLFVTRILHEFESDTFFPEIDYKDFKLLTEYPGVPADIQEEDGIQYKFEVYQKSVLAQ

Dihydrofolate reductase [8] = molecular target: T4, Dihydrofolate reductase (Escherichia coli, UniProt P0ABQ4); experiment: Relative Binding affinity against Dihydrofolate reductase of Escherichia coli
T4 sequence (P0ABQ4 whole entry): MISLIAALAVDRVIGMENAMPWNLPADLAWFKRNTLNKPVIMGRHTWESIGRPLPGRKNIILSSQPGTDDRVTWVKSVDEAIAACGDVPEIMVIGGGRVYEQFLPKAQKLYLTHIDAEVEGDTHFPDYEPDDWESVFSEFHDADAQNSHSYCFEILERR

Dihydrofolate reductase [9] = molecular target: T3, Dihydrofolate reductase; experiment: Binding affinity against Dihydrofolate reductase Inhibitor of chicken liver; conditions: read-out: I50

SMILES	MIC (Escherichia coli [1])	MIC (Proteus vulgaris)	MIC (Staphylococcus aureus)	IC50 (Dihydrofolate reductase [2]) [µM]	MIC (Escherichia coli [3])	MIC (Salmonella)	further results
COc1cc(Cc2cnc(N)nc2N)cc(OC)c1OC [TRIMETHOPRIM]	1	1	1	–	–	–	–
COC(=O)CCCCCOc1cc(Cc2cnc(N)nc2N)cc(OC)c1OC	–	>100	2	180	100	30	–
COc1cc(Cc2cnc(N)nc2N)cc(OCCC(=O)O)c1OC	1	>100	20	74	–	–	–
COc1cc(Cc2cnc(N)nc2N)cc(OC)c1OCCCCC(=O)O	–	–	–	640	–	–	–
CCOC(=O)CCCOc1cc(Cc2cnc(N)nc2N)cc(OC)c1OC	–	50	10	160	100	100	–
CCOC(=O)CCCOc1c(OC)cc(Cc2cnc(N)nc2N)cc1OC	–	–	–	–	–	–	inhibition [4]: 17%
COc1cc(Cc2cnc(N)nc2N)cc(OCCCCCC(=O)O)c1OC	300	>100	2	35	–	–	–
COc1cc(Cc2cnc(N)nc2N)cc(OCCCCC(=O)O)c1OC	300	>100	2	27	–	–	–
COc1cc(Cc2cnc(N)nc2N)cc(OCC(=O)O)c1OC	100	>100	>200	70	–	–	–
COC(=O)COc1cc(Cc2cnc(N)nc2N)cc(OC)c1OC	–	>100	200	–	100	1000	inhibition [5]: 15%
COC(=O)CCCCOc1c(OC)cc(Cc2cnc(N)nc2N)cc1OC	–	–	–	–	–	–	inhibition [6]: 0%
COC(=O)CCCCCCOc1cc(Cc2cnc(N)nc2N)cc(OC)c1OC	–	>50	0.2	110	100	50	–
COc1cc(Cc2cnc(N)nc2N)cc(OC)c1OCCCCCC(=O)O	–	>100	6	–	30	30	–
CCOC(=O)COc1c(OC)cc(Cc2cnc(N)nc2N)cc1OC	–	>100	60	–	100	10	–
COc1cc(Cc2cnc(N)nc2N)cc(OC)c1OCCCC(=O)O	–	–	–	400	–	–	IC50 (Dihydrofolate reductase [7]): 350 µM; Ki (Dihydrofolate reductase [8]): 0.0052 µM
COc1cc(Cc2cnc(N)nc2N)cc(OCCCC(=O)O)c1OC	100	>100	20	9.7	–	–	IC50 (Dihydrofolate reductase [9]): 22 µM
COc1cc(Cc2cnc(N)nc2N)cc(OC)c1OCC(=O)O	–	>100	200	–	300	100	–
COc1cc(Cc2cnc(N)nc2N)cc(OCCCCCCC(=O)O)c1OC	100	>50	1	56	–	–	–
COC(=O)CCCCCOc1c(OC)cc(Cc2cnc(N)nc2N)cc1OC	–	>100	6	–	1000	300	–
COC(=O)CCCCOc1cc(Cc2cnc(N)nc2N)cc(OC)c1OC	–	>100	2	130	1000	–	–

Source: ChEMBL document CHEMBL1123078 (J Med Chem, 1985)
